# Assay results as given in US20050044581A1, “Animals and cells containing a mutated alpha2/omega1 gene” (priority 2003, published 2005).
# What was measured:
# [1] = test system: R217A mutant lines and background strain mice; assay: Maximal electroshock procedure (MES); type: in vivo, mouse; conditions: for responsiveness to anticonvulsant effects: all background strains, mutant, heterozygous mutant and wildtype (all lines)
# Description: WT mice were tested at 0.1 mA, HET mice were tested at 0.4 mA and KI mice were tested at 0.7 InA. Each experiment included a no-shock vehicle control group for direct comparison to the concurrent vehicle punished-responding group to determine percent suppression of drinking. […] Sedation was noted by the observer as previously described. […] Electroshock in mice was delivered using corneal electrodes with varied electroshock intensity. Current was delivered (60 Hz sinusoidal current, 11 to 17 mA baseline to peak vs. 50 mA for 0.2 s) using a constant-current stimulator (Wahlquist Instruments, Salt Lake City, Utah). The intensities of current necessary to produce tonic extensor seizures for each mouse strain and mutant lines in all of the mice were determined. These currents were then used for further testing of mice with pregabalin. All dose-response testing was conducted at the previously determined time of peak drug effect. Groups of 10 mice each were give various intraperitoneal doses of pregabalin dissolved in 0.9% saline, diazepam (veh) or phenytoin and given in a volume of 10 ml/kg of body weight. […] At least four groups of mice and each animal was employed once. The animals, pretreated with different doses of the tested drugs, were challenged with one electroshock at previously determined times of peak drug effect (pregabalin: 120 min; diazepam: 60 min; phenytoin; 60 min)
# [2] = test system: WT, HET and KI R217A mice and parent strains; assay: Vogel water-lick conflict; type: in vivo, mouse; conditions: for minimally effective dose (MED), Vogel: IP (doses tested in mg/kg); for anxiolytic-like effect / punished licking, Vogel: R217A knockins (homozygous)
# Description: Two strains used to generate the mutant mice, C57BU6J (Jackson Laboratories), and 129S6/SvEV (Taconic Farms), were also evaluated. Albino or C57BL/6J-Tyr were also included in the experiments for comparison purposes. Male C57BL/6J (Jackson Laboratories), and 129S6/SvEV (Taconic Farms) mice were received at 8 weeks old in quantities sufficient for each study to be completed in one experiment. Parent strains were housed one week prior to testing. All animals were housed in a temperature and humidity controlled room under a 12L: 12D schedule (lights on @06:00 h). All mice were housed in isolators (3-5/cage) with the exception of C57BU6J mice that were housed on wire racks (12/cage).
# On the side of each chamber (1.5 in. above the floor) a module optical lickometer was mounted. The lickometer was used to measure licking from a drink tube attached to a water bottle mounted on the exterior of the chamber. A photo beam was piped via glass rods across a gap at the end of the drink tube. The subject's tongue breaks the beam when it drinks from the tube and each lick was automatically recorded. […] The reduced chamber space limited the animal's activity and directed behavior towards the drink tube during a 10-minute session. The front and back of the test chamber was made of clear Plexiglas. The front door was covered to reduce distractions from inside the test room. The back of the test chamber faced a wall, away from the flow of traffic in the testing room, and remained uncovered to provide the opportunity for observations. Shock was delivered between the grid floor and the drink tube using a (Coulbourn) programmable universal shocker for a duration of one second, but terminated immediately when contact between the animal and drink tube was broken.
# PROCEDURE: On day one, after 24 hours of water deprivation, experimental subjects were placed in the test chambers and allowed to drink unpunished for a 10-minute training session. Mice were required to complete a 100-150 lick criteria during the training session. Subjects that completed the training criteria prior to the end of the 10-minute session were removed so that drinking was restricted in all subjects to 25% of their total daily intake. […] Immediately after the day one session mice were returned to their home cages and deprived of water and food for an additional 24 hours. On test day two, mice were dosed by intraperitoneal (IP) injection with vehicle or test compound. After a 60 or 120-minute absorption period mice were placed into the test chambers for a 10-minute test session. During the test, shock was delivered on a fixed ratio (FR) 10 schedule. Therefore, after every 10th lick the subject received a mild shock. […] A low number of shock episodes accepted reflects anxiety-related behavior. Standard anxiolytic drugs produce effects that allow mice to overcome the behavioral inhibition and drink despite the shock. […] All data were analyzed using a one-way ANOVA/Dunn's Method.
# DRUGS: Pregabalin was dissolved in physiological saline for all experiments. The positive control diazepam was suspended in 2% cremophor in physiological saline. All drugs were dosed in a volume of 10 mL/kg.
# C57BL/6J mice were tested at 0.4 mA, C57BL/6J-Tyr mice were tested at 0.1 mA and 129S6/SvEV mice were tested at 0.6 mA. Each dose-response study included a no-shock vehicle control group directly compared to the concurrent vehicle punished-responding group to evaluate the suppression of drinking. […] For all experiments, sedation was noted when both symptoms of ataxia (unsteady gait) and a reduced response to handling were observed after dosing and described as mild, moderate or severe.
# WT mice were tested at 0.1 mA, HET mice were tested at 0.4 mA and KI mice were tested at 0.7 InA. Each experiment included a no-shock vehicle control group for direct comparison to the concurrent vehicle punished-responding group to determine percent suppression of drinking.
# [3] = test system: α2/δ1 in mouse brain membranes; assay: 3H gabapentin binding to whole mouse brain membranes, R217A mutant vs wildtype; conditions: R217A mutant mouse in comparison to wildtype mice; tracer 3H gabapentin; FIG. 3
# Description: Membranes were prepared from whole mouse brains. […] Total binding was determined in the absence of competitor. Non-specific binding was determined in the presence of 10 μM unlabeled pregabalin.
# [4] = test system: α2/δ1 R217A wild type and homozygous mice; assay: Tail Suspension Test (TST); type: in vivo, mouse; conditions: R217A mutant vs wildtype mice; dosed 120 minutes prior; FIG. 5
# Description: Male α2/δ1 R217A wild type and homozygous mice, weighing 22-35 grams, were used for testing. Animals were maintained on a 12 hour light/dark cycle with food and water available ad libitum. Animals were food deprived overnight the day before testing. On test day, animals were placed by groups of 8 into holding cages to acclimate for sixty minutes prior to dosing. Vehicle or pregabalin was administered 120 minutes prior to testing at a dose volume of 10 mL/kg. At test time, a piece of transparent tape was placed around the distal portion of the tail. The tape was then attached to a hook connected to an electro-mechanical apparatus that recorded the amount of time a mouse moved and the force used during movement. The hook was located at the top of a 24×18 cm testing chamber. Animals were completely suspended in air approximately 5 cm off the floor of the chamber for six minutes. Mean time of struggling and force of movement were then calculated for each group of eight.
# Animals are placed by groups of eight into holding cages to acclimate for thirty to sixty minutes prior to dosing. Treatments are generally administered 60 to 120 minutes prior to testing, although this also varies with specific compounds. At test time, a piece of scotch tape is placed around the distal portion of the tail. […]
# [5] = test system: α2/δ1 R217A wild type, heterozygous and homozygous mice; assay: Formalin foot-pad procedure (formalin-induced hyperalgesia); type: in vivo, mouse; conditions: PO 120 minutes prior to testing, FIG. 4
# Description: Male α2/δ1 R217A wild type, heterozygous, and homozygous mice, weighing 19-40 grams, were used for testing. Animals were maintained on a 12 hour light/dark cycle with food and water available ad libitum. Animals were food deprived overnight the day before testing. On test day, animals were acclimated to the observation chambers for approximately 60 min. The observation chambers were eight inch square boxes consisting of solid, acrylic plastic mirrors for the floor and 3 walls. The fourth wall was clear acrylic that allowed for observation. Animals were dosed PO with either vehicle or pregabalin, 120 minutes prior to testing at a dose volume 10 ml/kg. At test time, animals received a 25 μL injection of a 5% formalin solution in water in the plantar surface of the left hind foot. […] These behaviors were timed using a hand-held stopwatch and recorded at 5 min intervals. Data was analyzed by the two distinct phases of responding. Early phase responding included Minutes 0-10, and late phase responding included Minutes 11-45. The total time spent licking by drug-treated animals in each phase was compared to the total time spent licking by vehicle-treated animals.
# [6] = test system: R217A knock-in and wild-type mice; assay: Chronic constriction injury (CCI)-induced static allodynia, von Frey hairs; type: in vivo, mouse; conditions: for efficacy in CCI-induced allodynia: 30-100mg/kg, p.o.; for effect on CCI-induced punctate allodynia: sub cutaneous 30-100mg/kg, FIG. 8
# Text: Animals were placed in an anaesthetic chamber and anaesthetised with a 2% isofluorane O2 mixture. The right hind thigh is shaved and swabbed with 1% iodine. Animals were then transferred to a homeothermic blanket for the duration of the procedure and anaesthesia maintained during surgery via a nose cone. The skin was cut along the line of the thigh bone. The common sciatic nerve was exposed at the middle of the thigh by blunt dissection through biceps femoris. Proximal to the sciatic trifurcation, about 5mm of nerve was freed by inserting forceps under the nerve and the nerve gently lifted out of the thigh. The forceps were gently opened and closed several times to aid clearance of the fascia from the nerve. Suture was pulled under the nerve using forceps and tied in a simple knot until slight resistance was felt and then double knotted. The procedure was repeated until 3 ligatures (4-0 silk) were tied loosely around the nerve with approx 1 mm spacing. The incision was closed in layers and the wound treated with topical antibiotics.
# Animals were habituated to wire test cages prior to the assessment of allodynia. Static allodynia was evaluated by application of von Frey hairs (Stoelting, Wood Dale, Ill., U.S.A.) in ascending order of force ([…], 0.4, 0.6, 1.0, 1.5 and 2.0 g) to the plantar surface of hind paws. Each von Frey hair was applied to the paw for a maximum of 6 seconds, or until a withdrawal response occurred. Once a withdrawal response to a von Frey hair was established, the paw was re-tested, starting with the filament below the one that produced a withdrawal, and subsequently with the remaining filaments in descending force sequence until no withdrawal occurred. Each animal had both hind paws tested in this manner. The lowest amount of force required to elicit a response was recorded as paw withdrawal threshold (PWT) in grams. […]
# (§1) Following drug administration PWT were re-assessed for up to 4 h. The static allodynia data is expressed as median force (g) required to induce a paw withdrawal in 6-7 animals per group (vertical bars represent 1st and 3rd quartiles) *P<0.05, **P<0.01***P<0.005 (Mann Whitney U test) from vehicle treated group at each time point.
# as §1, with “It was examined whether pregabalin produced an anti-allodynic action in both the knock-in and wild-type mice. […] Baseline (BL) paw withdrawal thresholds (PWT) to von Frey hairs were assessed. Following” for “Following”
SMILES,responsiveness to anticonvulsant effects ([1]; FIG. 9),"minimally effective dose (MED), Vogel ([2]; 129S6/SvEv, shock 0.6 mA)","minimally effective dose (MED), Vogel ([2]; C57BL/6J, shock 0.4 mA)","minimally effective dose (MED), Vogel ([2]; C57 albino, shock 0.1 mA)","minimally effective dose (MED), Vogel ([2]; Hets, shock 0.4 mA)","minimally effective dose (MED), Vogel ([2]; Knockins, shock 0.7 mA)","anxiolytic-like effect / punished licking, Vogel [2]","minimally effective dose (MED), Vogel ([2]; Wild Type, shock 0.1 mA)",gabapentin binding to brain membranes [3],effect in Tail Suspension Test [4],"potency in protecting against seizures ([1]; mutant mice vs wild-type, heterozygous or back-ground strains)","anticonvulsant effects ([1]; −/− mice as compared to +/+ mice, FIG. 9)","sensitivity to effects in MES ([1]; −/− mice vs +/+ mice, FIG. 9)",efficacy on formalin-induced hyperalgesia [5],efficacy in CCI-induced allodynia ([6]; knock-in animals),effect on CCI-induced punctate allodynia ([6]; knock-in mice),efficacy in CCI-induced allodynia ([6]; wild type mice),effect on CCI-induced punctate allodynia ([6]; wild type mice),"increase in punished responding @ 100, Vogel ([2]; Knockins, dose 100)","anxiolytic-like effect / punished licking, Vogel ([2]; listed as Pregabalin)"
CN1C(=O)CN=C(c2ccccc2)c2cc(Cl)ccc21 [diazepam],fully responsive,inactive,3.2,3.2,3.2,inactive,Diazepam (+ control) failed to produce an anxiolytic-like effect in R217A knockins. Data suggests 129S6-parent strain's genotype may be responsible for pharmacological profile of diazepam,3.2,,,,,,,,,,,,
"NCC1(CC(=O)O)CCCCC1 [gabapentin, 1-(aminomethyl)cyclohexaneacetic acid]",,,,,,,,,"reduced, or greatly abolished",,,,,,,,,,,
O=C1NC(=O)C(c2ccccc2)(c2ccccc2)N1 [phenytoin],fully responsive,,,,,,,,,,,,,,,,,,,
CC(C)C[C@H](CN)CC(=O)O [pregabalin],,32,10,10,10,inactive,does not produce a statistically significant increase,32,,exerts its sedative and/or anxiolytic effect in TST through the α2/δ1 polypeptide,less potent,reduced,less sensitive,reduced efficacy,failed to demonstrate any efficacy,no effect,typical efficacy,significant blockade,non-significant,"Pregabalin did not produce a significant anxiolytic-like effect in R217A knockins, and no evidence was obtained relating phenotype to particular parent strain"
